According to patent US11859234B2, “Method of monitoring RNase L activity” (THE TRUSTEES OF PRINCETON UNIVERSITY, priority 2016, dated 2024):

What was measured:
[1] = target: T1, RNase L (Homo sapiens, UniProt Q05823); assay: RNA sequencing of RNase L cleavage products in permeabilized T47D cells stimulated with 2-5A; format: cell-based; set-up: endogenous in cells; conditions: 1 μM 2-5A for 3 minutes compared with 1 minute
T1 sequence (Q05823 1-741): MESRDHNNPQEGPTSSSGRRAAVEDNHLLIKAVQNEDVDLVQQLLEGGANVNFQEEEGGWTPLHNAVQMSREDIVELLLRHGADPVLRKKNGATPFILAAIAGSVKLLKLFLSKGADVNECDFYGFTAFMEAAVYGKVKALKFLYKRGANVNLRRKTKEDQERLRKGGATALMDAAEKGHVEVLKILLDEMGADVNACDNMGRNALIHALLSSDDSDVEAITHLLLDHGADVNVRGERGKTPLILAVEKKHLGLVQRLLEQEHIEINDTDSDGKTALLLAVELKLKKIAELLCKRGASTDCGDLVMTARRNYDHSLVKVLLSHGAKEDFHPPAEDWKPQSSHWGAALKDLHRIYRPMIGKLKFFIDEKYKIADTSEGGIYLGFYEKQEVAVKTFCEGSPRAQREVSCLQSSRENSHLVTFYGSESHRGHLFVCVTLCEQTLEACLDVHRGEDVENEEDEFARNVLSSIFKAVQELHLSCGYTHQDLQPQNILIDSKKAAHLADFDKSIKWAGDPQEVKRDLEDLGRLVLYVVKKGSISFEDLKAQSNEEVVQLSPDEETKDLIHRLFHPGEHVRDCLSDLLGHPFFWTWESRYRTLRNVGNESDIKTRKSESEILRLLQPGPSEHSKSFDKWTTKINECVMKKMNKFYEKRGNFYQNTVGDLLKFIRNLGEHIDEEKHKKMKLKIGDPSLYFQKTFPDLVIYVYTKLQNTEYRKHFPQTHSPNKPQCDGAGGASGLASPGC
Description: Initially, approximately 500 ng-1 μg miRvana purified small RNAs is ligated to the ligation adapter (5′-[…]-3′(SEQ ID NO: 1), underlined portion is RNA) using RtcB. It is contemplated that the adaptor has a 3′-desthiobiotin modification. The ligated RNAs are separated from free adapter by resolving on 10% urea PAGE by staining gel and excising all RNA larger than the free adapter. RNA is eluted from gel slices overnight at 4° C. in TE buffer pH 7.5 supplemented with 0.05% Triton X-100. Glycogen is added to RNAs and precipitated with 3 volumes of 100% ethanol and 1/10 volume 3M sodium acetate pH 5.2. The sample is then incubated on dry ice for 30 minutes. […]
Libraries are assessed on an Agilent High Sensitivity DNA chip, and equimolar amounts of libraries pooled and resolved on 6% native PAGE and visualized by gel staining. […] Libraries are now ready for sequencing on the Illumina HiSeq 2000 platform.
The RNA sequencing experiments were also carried out in HeLa cells that overexpress RNase L (RNLoe) and in T47D cells derived from human breast cancer and that have been permeablized and stimulated for 1 minute or 3 minutes with 1 μM 2-5A, which specifically activates RNase L but not other pathways. Results of the primary types of cleavage products detected, e.g., tRNA-His, tRNA-Pro, RNY1, RNY3, RNY4 and RNY5, were similar. […]

[2] = target: T1, RNase L; assay: qPCR detection of tRNA His-GUG-36 RNase L cleavage product in poly I:C stimulated HeLa cells; format: cell-based; set-up: endogenous in cells; host or cells: HeLa cells; conditions: total RNA, RtcB ligation, qPCR with His-GUG-36-2 primer, ΔΔCt method (FIG. 4F)
Description: Reaction components useful in the ligation reaction include the following: 2-500 ng purified RNA, 30 μM RtcB ligase, 1 U/μL RNase inhibitor, 10 μM ligation adapter, 100 μM GTP, 20 mM HEPES pH 7.5, 2 mM MnCl2, 110 mM NaCl, 4 mM DTT, 2.2% glycerol (carried into the reaction with RtcB and RNase inhibitor). The standard reaction volume is 10 μL with incubation for 1 hour at 37° C.
After incubation 1 μL of 33 mM EDTA is added followed by a brief room temperature incubation (usually 5-10 minutes) giving a final concentration of EDTA of 3 mM. EDTA is added to chelate Mn^2+ ions that might interfere in downstream steps as well as to stop the ligation reaction.
1 μL of EDTA quenched ligation reaction is mixed with dNTPs and 10 picomoles (pmol) of RT primer in 10 μL volume. The mixture is incubated at 65° C. for 5 minutes then placed on ice (optional). The remaining components are added for a 20 μL reverse transcription reaction: RT buffer, 0.2 U μL RNase inhibitor, Reverse transcriptase (added last), and H2O for 20 μL final volume and incubated according to the RT manufacturer's specifications. […]
For the qPCR, total purified RNA from non-stimulated and poly I:C stimulated HeLa cells was serially diluted, ligated to the adapter with RtcB, reverse transcribed, and detected by qPCR using the His-GUG-36-2 primer and qPCR reverse primer.

## 2′,5′-oligoadenylate [2-5A]
[1]
  RNA cleavage profile of RNase L products: enhanced induction of RNA cleavage of the same products

## polyinosinic-polycytidylic acid [polyI:C]
[2]
  number of tRNA His-GUG-36-2 cleavage products compared to non-stimulated cells: significantly increased
